Experimental data published in article PMC7369900 (International Journal of Molecular Sciences, 2020).
In brackets after ≈: the same amount, converted by molar mass. Read-outs that look alike come from different tables or passages of the source.

Tests used:
C. glabrata DSM 11226 [1] = assay: microbe, parasite or virus in culture; conditions: Nakaseomyces glabratus, DSM11226
C. albicans Gu5 = assay: microbe, parasite or virus in culture; conditions: Candida albicans
[2] = test system: C. albicans Δopt1Δopt5Δptr2Δptr22; assay: microbe, parasite or virus in culture; conditions: Candida albicans
C. albicans Gu4 [3] = assay: microbe, parasite or virus in culture; conditions: Candida albicans
C. albicans SC 5314 [4] = assay: microbe, parasite or virus in culture; conditions: Candida albicans, SC5314
C. krusei DSM 6128 [5] = assay: microbe, parasite or virus in culture; conditions: Pichia kudriavzevii, DSM6128
[6] = test system: C. albicans Δopt1Δopt5Δptr2Δptr22
HEK 293 [7] = assay: ROS generation (CM-H2DCFDA, flow cytometry); format: cell-based, human; conditions: positive cells in 24 h, class
Protocol: (§1) In the positive controls treated with H2O2, the fraction of ROS-positive cells exceeded 75%. […] Strikingly, in HL-60, a biologically significant effect was observed almost immediately (after 15 min of incubation). The same was noted after 1 h in the HEK 293 cell line. […] Similarly, conjugates 4 and 5 generated ROS at the low level (less than 15% for HL-60 and less than 20% for HEK 293) (manuscript in preparation). […] For HL-60, the critical level of ROS was noted after 15 min of incubation.
(§2) ROS generation activity was evaluated as described previously. Briefly, HEK 293 cells were seeded on 35-mm Petri dishes in the amount of 15,000 cells per plate for 24 h in DMEM medium. […] Positive controls contained 250 µM H2O2, while negative controls were without any additions. After 0.5, 2.5, 5.5, and 24 h of incubation at 37 °C, the CM-H2DCFDA molecular probe (Thermo Fischer Scientific, Waltham, USA) was added to the plates and incubation was continued for another 0.5 h. The HEK 293 cells were detached with 0.05% trypsin solution in PBS and HBSS (Hank’s Balanced Salt Solution) and suspended in fresh DMEM medium. All samples were additionally stained with 7-AAD (7-aminoactinomycin D, 0.8 µg/mL) and immediately analysed with a Guava easyCyte flow cytometer (Merc, Burlington, USA). The determinations were performed in triplicates.

HL-60 = assay: ROS generation (CM-H2DCFDA, flow cytometry); format: cell-based, human; conditions: positive cells in 24 h, class
Protocol: as §1, §2

[8] = test system: Staphylococcus aureus ATCC 25,923; parameters: method as in PMID 25891396; conditions: cited from earlier work
LLC-PK1 = assay: cells; format: cell-based, pig; conditions: LLC-PK1, 72 h, MTT
Method in brief: (§3)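 MTT assay after 72 h compound exposure at 37 °C; LLC-PK1 in Medium 199 + 7.5% FBS, Hep G2 in MEM Eagle + 10% FBS, HEK 293 in DMEM + 10% FBS (10% CO2 for HEK 293, otherwise 5%). MTT 3 h, formazan in DMSO, A540; cytotoxicity relative to drug-free control, triplicates.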

human red blood cells = assay: Hemolysis assay; conditions: 1 h, 37 °C
E. coli ATCC 25922 = assay: microbe, parasite or virus in culture; format: cell-based, Escherichia coli; conditions: E. coli ATCC 25922, MHB
Protocol: (§4) The antibacterial activity of TP10-NH2-based conjugates, as well as its constituents, was evaluated by microdilution assay in Mueller Hinton broth, MHB (Table 1). […] There are, however, some exceptions. […] Its activity against two other tested bacteria was somewhat lower though.
(§5) The antibacterial activity (bacteriostatic: MIC and bactericidal: MBC) of the tested compounds was determined in MHB (Mueller Hinton Broth, Sigma Aldrich, St. Louis, MO, USA) using a serial two-fold dilution method in 96-well microtiter plates according to CLSI recommendations, described in M07-A10 document. The exact conditions have been described previously. All experiments were performed in three replicates. The MIC90 and MIC50 values were defined as the concentrations of compounds tested that caused a 90% or 50% reduction of growth, respectively, comparing to the drug-free control.

S. aureus ATCC 29213 = assay: microbe, parasite or virus in culture; format: cell-based, Staphylococcus aureus; conditions: S. aureus ATCC 29213, MHB
Protocol: as §4, §5

E. coli ATCC 25,922 = test system: E. coli ATCC 25,922; parameters: method as in PMID 25891396; conditions: cited from earlier work
C. krusei DSM 6128 [9] = test system: C. krusei DSM 6128
[10] = test system: S. epidermidis ATCC 12228; assay: microbe, parasite or virus in culture; format: cell-based, Staphylococcus epidermidis; conditions: S. epidermidis ATCC 12228, MHB
Protocol: as §4, §5

P. aeruginosa ATCC 27853 = assay: microbe, parasite or virus in culture; format: cell-based, Pseudomonas aeruginosa
Protocol: as §4, §5

[11] = molecular target: T1, yeast DNA topoisomerase II (Saccharomyces cerevisiae, UniProt P06786); assay: biochemical; format: biochemical; conditions: pBR322 relaxation, 30 °C, 30 min
T1 construct: purchased Inspiralis (Norwich, UK)
T1 sequence (P06786 whole entry): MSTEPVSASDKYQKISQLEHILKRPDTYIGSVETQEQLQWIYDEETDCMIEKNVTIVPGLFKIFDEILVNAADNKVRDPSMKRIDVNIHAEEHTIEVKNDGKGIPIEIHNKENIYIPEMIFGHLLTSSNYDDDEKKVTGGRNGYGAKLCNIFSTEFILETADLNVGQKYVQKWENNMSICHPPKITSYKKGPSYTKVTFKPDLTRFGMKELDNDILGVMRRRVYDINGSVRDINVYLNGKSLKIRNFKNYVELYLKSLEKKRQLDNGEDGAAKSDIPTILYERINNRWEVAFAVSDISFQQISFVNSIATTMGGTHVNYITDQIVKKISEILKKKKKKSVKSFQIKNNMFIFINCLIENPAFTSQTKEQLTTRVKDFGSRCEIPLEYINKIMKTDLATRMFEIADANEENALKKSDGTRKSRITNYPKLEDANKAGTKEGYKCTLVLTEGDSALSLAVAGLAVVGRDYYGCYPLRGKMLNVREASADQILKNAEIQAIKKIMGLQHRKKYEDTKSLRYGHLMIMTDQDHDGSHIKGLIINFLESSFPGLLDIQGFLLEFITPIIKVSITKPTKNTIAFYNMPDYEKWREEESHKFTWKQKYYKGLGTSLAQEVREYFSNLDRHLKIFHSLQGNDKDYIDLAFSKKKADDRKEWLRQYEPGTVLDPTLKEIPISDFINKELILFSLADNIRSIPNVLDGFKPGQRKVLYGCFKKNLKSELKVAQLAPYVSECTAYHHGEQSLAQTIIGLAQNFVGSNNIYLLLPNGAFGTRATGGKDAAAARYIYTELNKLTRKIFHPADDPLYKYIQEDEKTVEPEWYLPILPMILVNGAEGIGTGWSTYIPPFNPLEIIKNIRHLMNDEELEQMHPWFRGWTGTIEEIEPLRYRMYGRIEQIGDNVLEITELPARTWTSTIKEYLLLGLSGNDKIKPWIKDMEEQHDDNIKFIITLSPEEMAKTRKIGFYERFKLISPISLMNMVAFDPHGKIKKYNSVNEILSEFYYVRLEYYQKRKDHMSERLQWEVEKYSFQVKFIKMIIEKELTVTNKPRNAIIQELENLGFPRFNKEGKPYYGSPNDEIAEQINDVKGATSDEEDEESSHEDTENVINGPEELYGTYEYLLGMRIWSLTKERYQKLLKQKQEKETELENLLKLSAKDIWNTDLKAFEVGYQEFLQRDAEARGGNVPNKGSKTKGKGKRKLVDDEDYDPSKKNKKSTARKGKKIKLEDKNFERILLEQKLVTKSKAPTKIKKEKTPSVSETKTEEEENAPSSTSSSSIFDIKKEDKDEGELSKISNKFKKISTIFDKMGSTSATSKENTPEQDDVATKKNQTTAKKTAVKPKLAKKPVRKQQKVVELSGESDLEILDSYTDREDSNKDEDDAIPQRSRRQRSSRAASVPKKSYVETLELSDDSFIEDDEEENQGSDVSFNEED

[12] = test system: yeasts of the Candida genus
[13] = test system: S. aureus ATCC 25,923 cells; assay: Stability inside bacterial cells (LC-MS of cell lysate)
bacteria = assay: Influence of salts: antibacterial activity in MHB2 compared to MHB; format: cell-based; conditions: MHB2: Ca(II) 20–25 mg/L, Mg(II) 10–12.5 mg/L
Protocol: Additionally, for selected compounds, the aspect of the influence of salts present in the medium on antimicrobial activity was evaluated. […] In the salt-enriched medium, the MIC values determined for TP10-NH2 were up to 40-fold higher than those found in MHB. The phenomenon of reduction of the growth inhibitory activity of antimicrobial peptides at a high salt concentration was previously evidenced by other researchers. It may cause severe limitations for AMPs’ usage as therapeutic agents because of the risk of potential inactivation by salts present in the human body.

HEK 293 [14] = assay: cells; format: cell-based, human; conditions: HEK 293, 72 h, MTT
Method in brief: as §3

Hep G2 = assay: cells; format: cell-based, human; conditions: Hep G2, 72 h, MTT
Method in brief: as §3

C. albicans Gu4 [15] = test system: C. albicans Gu4
C. glabrata DSM 11226 [16] = test system: C. glabrata DSM 11226
C. albicans SC 5314 [17] = test system: C. albicans SC 5314

OC(Cn1cncn1)(Cn1cncn1)c1ccc(F)cc1F [FLU, Fluconazole]
MIC50 (C. glabrata DSM 11226 [1]): 100 µM (≈ 30.6 µg/mL) | MIC50 (C. albicans Gu5): > 200 µM | MIC50 [2]: 50 µM (≈ 15.3 µg/mL) | MIC90 [2]: 100 µM (≈ 30.6 µg/mL) | MIC50 (C. albicans Gu4 [3]): 50 µM (≈ 15.3 µg/mL) | MIC50 (C. albicans SC 5314 [4]): 50 µM (≈ 15.3 µg/mL) | MIC90 (C. albicans SC 5314 [4]): 100 µM (≈ 30.6 µg/mL) | MIC50 (C. krusei DSM 6128 [5]): 50 µM (≈ 15.3 µg/mL)

CC[C@H](C)[C@H](NC(=O)[C@H](CCCCN)NC(=O)[C@H](CCCCN)NC(=O)[C@H](C)NC(=O)[C@H](CC(C)C)NC(=O)[C@H](C)NC(=O)[C@H](C)NC(=O)[C@H](CC(C)C)NC(=O)[C@H](C)NC(=O)[C@H](CCCCN)NC(=O)[C@H](CC(C)C)NC(=O)[C@H](CC(N)=O)NC(=O)[C@@H](NC(=O)[C@H](CCCCN)NC(=O)CNC(=O)[C@H](CC(C)C)NC(=O)[C@H](CC(C)C)NC(=O)[C@H](Cc1ccc(O)cc1)NC(=O)CNC(=O)[C@H](C)N)[C@@H](C)CC)C(=O)N[C@@H](CC(C)C)C(N)=O [TP10-NH2, transportan 10, reference compound]
MIC50 [6]: 100 µM (≈ 218 µg/mL) | MIC90 [6]: 100 µM (≈ 218 µg/mL) | ROS HEK 293 (HEK 293 [7]): ++ (++ <10% positive cells in 24 h) | ROS HL-60 (HL-60): ++ (++ <10% positive cells in 24 h) | MIC ([8]; Staphylococcus aureus ATCC 25,923, converted from μg/mL): ~ 7 μM | MIC ([8]; Staphylococcus aureus ATCC 25,923): 16 µg/mL (≈ 7.33 µM) | IC50 (LLC-PK1): 22.7 ± 5.65 µM | MHC50 (concentration causing 50% hemolysis) (human red blood cells): ~200 µg/mL | MHC50 (concentration causing 50% hemolysis) (human red blood cells; converted from μg/mL): ~ 92 μM | MIC50 (E. coli ATCC 25922): 1.6 µM (≈ 3.49 µg/mL) | MIC90 (E. coli ATCC 25922): 1.6 µM (≈ 3.49 µg/mL) | MIC50 (S. aureus ATCC 29213): 3.125 µM (≈ 6.82 µg/mL) | MIC90 (S. aureus ATCC 29213): 3.125 µM (≈ 6.82 µg/mL) | MIC (E. coli ATCC 25,922; E. coli ATCC 25,922, converted from μg/mL): ~ 7 μM | MIC (E. coli ATCC 25,922; E. coli ATCC 25,922): 16 µg/mL (≈ 7.33 µM) | MIC50 (C. krusei DSM 6128 [9]): >200 µM | MIC50 [10]: 1.6 µM (≈ 3.49 µg/mL) | MIC90 [10]: 1.6 µM (≈ 3.49 µg/mL) | MIC50 (P. aeruginosa ATCC 27853; P. aeruginosa ATCC 27853, MHB): >100 µM | MIC90 (P. aeruginosa ATCC 27853; P. aeruginosa ATCC 27853, MHB): >100 µM | MIC (P. aeruginosa ATCC 27853; Pseudomonas aeruginosa, MHB): > 100 µM | Concentration of complete inhibition of topoisomerase II activity [11]: 50 µM | MIC against C. albicans [12]: 100 µM (≈ 218 µg/mL) | Stability inside bacterial cells [13]: resistant inside the bacterial cells | Influence of salts (MHB2 vs MHB) on antibacterial activity (bacteria): strongly affected | MIC in salt-enriched medium (MHB2) relative to MHB (bacteria): up to 40 fold | IC50 (HEK 293 [14]): 25.1 ± 0.86 µM | IC50 (Hep G2): 32.1 ± 1.65 µM | MIC50 (C. albicans Gu4 [15]): 100 µM (≈ 218 µg/mL) | MIC50 (C. glabrata DSM 11226 [16]): >200 µM | MIC50 (C. albicans SC 5314 [17]): 100 µM (≈ 218 µg/mL) | MIC90 (C. albicans SC 5314 [17]): 100 µM (≈ 218 µg/mL)
